Patent US10759796B2, “CXCR4 inhibitors and uses thereof” (X4 Pharmaceuticals, Inc., priority 2016, dated 2020)
Where two headings read alike, the source gives them in different places.

How the values were obtained:
[1] = target: CXCR-4 transfected U87 cell line (U87.CXCR4) (Homo sapiens (Human), UniProt P61073); assay: Intracellular CXCL-12-induced calcium mobilization assay (FLIPR); format: cell-based; details: U87.CXCR4 cells, CXCL-12 25-50 ng/mL; read-out: IC50 CXCL-12 Ca2+ flux U87.CXCR4+
Method in brief: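 U87.CXCR4 cells were seeded at 20,000 per well, cultured 12 hours, then loaded with 4 μM Fluo-2 AM for 45 min at 37° C. in HBSS with 20 mM HEPES and 0.2% BSA, pH 7.4. Calcium flux triggered by CXCL-12 (25-50 ng/mL) was tracked over time by FLIPR fluorescence at 37° C.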

[2] = target: Jurkat cells expressing CXCR4 (Homo sapiens (Human), UniProt P61073); assay: Chemokine (CXCL12-AF647) binding inhibition assay; details: CXCL12-AF647 25 ng/mL, read-out: IC50 CXCL-12 binding Jurkat
Jurkat cells expressing CXCR4, sequence (P61073 whole entry): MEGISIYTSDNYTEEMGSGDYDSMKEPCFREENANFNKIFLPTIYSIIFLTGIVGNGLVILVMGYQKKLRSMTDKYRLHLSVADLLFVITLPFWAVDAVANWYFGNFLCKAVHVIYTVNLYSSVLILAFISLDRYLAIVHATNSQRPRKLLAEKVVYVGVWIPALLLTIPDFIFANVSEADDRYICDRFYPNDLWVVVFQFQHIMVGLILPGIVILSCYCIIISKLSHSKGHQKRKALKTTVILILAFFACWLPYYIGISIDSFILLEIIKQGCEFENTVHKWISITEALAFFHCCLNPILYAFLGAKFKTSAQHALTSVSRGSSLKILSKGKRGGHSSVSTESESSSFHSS
Method in brief: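 Cells in HBSS, 20 mM HEPES, 0.2% BSA, pH 7.4, preincubated 15 min at room temperature with compound, then 25 ng/mL CXCL12-AF647 for 30 min. After washing and paraformaldehyde fixation, bound ligand read by flow cytometry; percent inhibition calculated from MFI relative to unlabeled and ligand-only controls.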

[3] = in vitro; details: human, Caco-2, pH 7.4
Method in brief: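 Compounds at 10 μM in HBSS pH 7.4 (0.1–0.3% DMSO) were dosed on Caco-2 monolayers, apical-to-basolateral and basolateral-to-apical, for 90 min at 37 °C, in duplicate. Monolayer integrity was checked by TEER and lucifer yellow flux, read by fluorescence at 485/535 nm. Compound was quantified by LC-MS/MS and Papp calculated.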

[4] = Mouse brain uptake assay, 0-24 h, 4 time points; format: in vivo; details: male, 3 mg/kg IV, 4 time points; for Kp / Kp uu: CD1, brain and plasma; for Kp / Kp uu / clearance / half-life: Mouse; for clearance / half-life: CD1, plasma; for half-life: read-out: t½ (converted)
Protocol: The study design (9 animals) consisted of administrating the drug (IV: 3 mg/kg (5 mL/kg) via tail vein injection) and collecting samples at terminal bleeding for plasma and brain at 0.083, 0.5 and 1 h. The blood collection was performed as follows: the animal was restrained manually and approximately 150 μL blood/time point was collected into a dipotassium EDTA tube via retro orbital puncture under anesthesia with isoflurane. The blood sample was put on ice and centrifuged to obtain a plasma sample (2000 g, 5 min under 4° C.) within 15 minutes. The brain collection was performed as follows: a mid-line incision was made in the animal's scalp and the skin was retracted. Using small bone cutters and rongeurs, the skull overlying the brain was removed. The brain was removed using a spatula and the brain rinsed with cold saline. The brain was placed in screw-top tubes, and the tubes were stored at −70° C. until analysis. The IV dosing solution was prepared in 50 mM citrate buffer (pH 4.0) at 0.6 mg/mL.
An aliquot of 30 μL sample was added to 150 μL MeCN containing 50 ng/mL IS (Dexamethasone). The mixture was vortexed for 5 min and centrifuged at 14,000 rpm for 5 min. An aliquot of 5 μL supernatant was injected for LC-MS/MS analysis.
An aliquot of 30 μL brain homogenate (brain:PBS=1:3, w/v) sample was added to 150 μL IS in ACN (Dexamethasone, 50 ng/mL). The mixture was vortexed for 5 min and centrifuged at 14,000 rpm for 5 min. An aliquot of 5 μL supernatant was injected for LC-MS/MS analysis.
The sample analysis was performed on LCMS/MS-003 (API4000, triple quadruple) under the following conditions: positive ion, ESI, MRM detection using dexamethasone as internal standard. HPLC conditions: mobile phase A: H2O (0.025% formic acid (FA) with 1 mM NH4OAc); mobile phase B: MeOH (0.025% FA with 1 mM NH4OAc) on Waters X-Bridge C18 (2.1×50 mm, 2.5 μm) column at 60° C.
A similar experiment was performed with 4 time points taken from 0-24 h.

[5] = Fraction of drug unbound to plasma proteins, mouse; format: in vitro ADME; details: Mouse plasma proteins (Table 10); read-out: Fu (p) %
[6] = Fraction of drug unbound to brain proteins, mouse; format: in vitro ADME; details: Mouse brain proteins (Table 10); read-out: Fu (b) %
[7] = CD1, Mouse brain, read-out: AUClast (b)
[8] = CD1, Mouse plasma, read-out: AUClast (p)

CXCR-4 transfected U87 cell line (U87.CXCR4), sequence (P61073 whole entry): as above

SMILES	IC50 [1] [nM]	IC50 [2] [nM]	Papp A→B at 90 min, 10 μM [3] [×10⁻⁶ cm/s]	Papp B→A at 90 min, 10 μM [3] [×10⁻⁶ cm/s]	efflux ratio at 90 min, 10 μM [3]	AUC(0-t) [4, 7] [ng·h/mL]	AUC(0-t) [4, 8] [ng·h/mL]	Kp [4]	Kp uu [4]	clearance [4] [mL/min/kg]	half-life [4] [h]	fraction unbound [5]	fraction unbound [6]
CN1CCN(c2cccc3nc([C@H]4CCC[C@@H](c5ncccc5Cl)N4C)c(Cl)n23)CC1 [Compound I-115]	0.01 to 100	0.01 to 100	0.1 to 10	0.1 to 10	0.1 to 10	26900	1400	19.2	3.68	35.3	3.96	0.026	0.005
CC(C)N1CCN(c2cccc3nc([C@H]4CCC[C@@H](c5ncccc5Cl)N4C)cn23)CC1 [Compound I-150]	≥ 1000	0.01 to 100	0.1 to 10	10 to 30	0.1 to 10								
CCN1CCN(c2cccc3nc([C@H]4CCC[C@@H](c5ncccc5Cl)N4C)cn23)CC1 [Compound I-151]	100 to 1000	0.01 to 100	10 to 30	10 to 30	0.1 to 10								
Cc1cccnc1[C@@H]1CCC[C@H](c2nc3ccccn3c2N2CCN(C)CC2)N1C [Compound I-152]	0.01 to 100	0.01 to 100	0.1 to 10	10 to 30	0.1 to 10								
Cc1cccnc1[C@@H]1CCC[C@H](c2nc3ccccn3c2N2CCN(C)CC2)N1 [Compound I-154]	≥ 1000	100 to 1000	0.1 to 10	10 to 30	0.1 to 10								
Cc1cccnc1[C@@H]1CCC[C@H](c2cn3c(N4CCNC5(CC5)C4)cccc3n2)N1C [Compound I-156]	0.01 to 100	0.01 to 100	0.1 to 10	10 to 30	0.1 to 10								
CN1[C@@H](c2cn3c(N4CCNC5(CC5)C4)cccc3n2)CCC[C@H]1c1ncccc1Cl [Compound I-159]	0.01 to 100	0.01 to 100	10 to 30	10 to 30	0.1 to 10								
CN1CCN(c2cccc3nc([C@H]4CCC[C@@H](c5ncccc5Cl)N4)cn23)CC12CC2 [Compound I-160]	≥ 1000	100 to 1000	10 to 30	10 to 30	0.1 to 10								
Cc1cccnc1[C@@H]1CCC[C@H](c2nc3c(N)ccc(N4CCN(C)CC4)n3c2Cl)N1C [Compound I-164]	0.01 to 100	0.01 to 100	10 to 30	10 to 30	0.1 to 10								
Clc1cccnc1[C@@H]1CCC[C@H](c2cn3c(N4CCNC5(CC5)C4)cccc3n2)N1 [Compound I-166]	≥ 1000	100 to 1000	10 to 30	10 to 30	0.1 to 10								
Clc1cccnc1[C@@H]1CCC[C@H](c2nc3cccc(N4CCNC5(CC5)C4)n3c2Cl)N1 [Compound I-167]	≥ 1000	100 to 1000	0.1 to 10	0.1 to 10	0.1 to 10								
COc1cccnc1[C@@H]1CCC[C@H](c2cn3c(N4CCNC5(CC5)C4)cccc3n2)N1 [Compound I-172]	≥ 1000	≥ 1000	0.1 to 10	> 30	> 30								
COc1cccnc1[C@@H]1CCC[C@H](c2nc3cccc(N4CCN(C)CC4)n3c2Cl)N1 [Compound I-173]	≥ 1000	100 to 1000	0.1 to 10	10 to 30	0.1 to 10								
COc1cccnc1[C@@H]1CCC[C@H](c2nc3cccc(N4CCNC5(CC5)C4)n3c2Cl)N1 [Compound I-175]	≥ 1000	≥ 1000	0.1 to 10	10 to 30	0.1 to 10								
CN1C2CCC1CN(c1cccc3nc([C@H]4CCC[C@@H](c5ncccc5Cl)N4)cn13)C2 [Compound I-181]	0.01 to 100	0.01 to 100	0.1 to 10	10 to 30	0.1 to 10								
CN1CC2CCC(C1)N2c1cccc2nc([C@H]3CCC[C@@H](c4ncccc4Cl)N3)cn12 [Compound I-182]	≥ 1000	0.01 to 100	10 to 30	10 to 30	0.1 to 10								
Cc1cccnc1[C@@H]1CCC[C@H](c2cn3c(N4C5CCC4CN(C)C5)cccc3n2)N1 [Compound I-186]	0.01 to 100	0.01 to 100	0.1 to 10	10 to 30	0.1 to 10								

The next lines start with the values.

IC50 [1] [nM]	IC50 [2] [nM]	Papp A→B at 90 min, 10 μM [3] [×10⁻⁶ cm/s]	Papp B→A at 90 min, 10 μM [3] [×10⁻⁶ cm/s]	efflux ratio at 90 min, 10 μM [3]	AUC(0-t) [4, 7] [ng·h/mL]	AUC(0-t) [4, 8] [ng·h/mL]	Kp [4]	Kp uu [4]	clearance [4] [mL/min/kg]	half-life [4] [h]	fraction unbound [5]	fraction unbound [6]	SMILES
0.01 to 100	0.01 to 100	10 to 30	10 to 30	0.1 to 10	13700	2130	6.41	0.54	22	6.42	0.047	0.004	Cc1c([C@@H]2CCC[C@H](c3ncccc3Cl)N2)nc2cccc(N3CCN(C)CC3)n12 (stereo in doubt) [Compound I-193]
0.01 to 100	0.01 to 100	0.1 to 10	10 to 30	0.1 to 10									CN1CCN(c2cccc3nc([C@H]4CCC[C@@H](c5ncccc5C5CC5)N4)cn23)CC1 [Compound I-179]
0.01 to 100	0.01 to 100	10 to 30	10 to 30	0.1 to 10									CN1CCN(c2cccc3nc([C@H]4CCC[C@@H](c5ncccc5C5CC5)N4)c(Cl)n23)CC1 [Compound I-180]
≥ 1000	100 to 1000	0.1 to 10	> 30	10 to 30									Cc1cccnc1[C@@H]1CCC[C@H](c2cn3c(N4CCNC5(CC5)C4)cccc3n2)N1 [Compound I-190]
100 to 1000	0.01 to 100	0.1 to 10	> 30	10 to 30									COc1cccnc1[C@@H]1CCC[C@H](c2cn3c(N4CCN(C)CC4)cccc3n2)N1 [Compound I-191]
≥ 1000	≥ 1000	10 to 30	> 30	0.1 to 10									Cc1cccnc1[C@H]1CCC[C@@H](c2nc3ccccn3c2-c2ccncc2)N1 [Compound I-207]
≥ 1000	≥ 1000	10 to 30	10 to 30	0.1 to 10									Cc1cccnc1[C@@H]1CCC[C@H](c2nc3ccccn3c2-c2cccnc2)N1 [Compound I-208]
≥ 1000	≥ 1000	0.1 to 10	10 to 30	> 30									Cc1cccnc1[C@@H]1CCC[C@H](c2cn3c(N4CCN(C)C(=O)C4)cccc3n2)N1 [Compound I-210]
